One compound from patent US20230331685A1, “HERBICIDAL COMPOUNDS AND METHODS OF USE THEREOF” (AG Plenus Ltd, priority 2020, published 2023) can be followed below.

Type in all cases: in vivo
One assay has as its system Echinochloa colon. Kind of assay: LTP post-emergence greenhouse test. The note with it: Dosage 2000 g/ha.
In the next assay the test system is Digitaria sanguinalis. Kind of assay: LTP post-emergence greenhouse test. The note with it: Dosage 2000 g/ha.
In the next assay the test system is Abutilon theophrasti. Kind of assay: LTP post-emergence greenhouse test. The following applies: Dosage 2000 g/ha.
Assay [1] deals with Arabidopsis thaliana. Kind of assay: HTPS pre-emergence application on dicot model plant. The protocol:
(§1) The plates were placed in a controlled greenhouse in a random order inside a bath which allows flooding irrigation with tap water supplemented with a fertilizer. Applied compounds were dissolved into a final solution of 50% acetone, 49.9% DDW, 0.1% tween-20. A 96 well plate was used as a stock plate for preparing application solutions for 8 repeats. Each row contained different concentrations per chemical. Maximal concentration for application was 1.5 Kg/Ha and dilution factor is 2.5. Chemical application was performed one day after thinning out in a chemical hood. […] applied on first two true leaves in each well using 12 channel pipettes. Data collection: RGB (red, green, blue) data for green area per well was documented using camera. Data is collected at a few time points during the experiment: one day after thinning and before chemical application, two-, six- or nine-days post application. During the last two documentations, visual phenotyping was performed. Data analysis: Given RGB results and visual phenotype scores, a student t-test conducted to compare between treatment and control performance for continuous data (RGB) and Fisher exact test to analyze the non-continuous data (phenotypic scores). Dose-Response curves are generated for each treatment to infer ED50 and max. inhibition parameters, using treatment's log concentration range as the […] and normalized green area. […] Plate imaging performed at 11 and 18 DAA. RGB data for green area per well was documented and used to extract % inhibition. Dose-Response curves were built for each treatment to infer EC50, EC75 and EC90 parameters, using treatment's log concentration range as the independent variable and normalized green area as the dependent variable. Treatments were compared to controls performance given RGB results and using student's t-test (p-val≤0.05). Compounds 104-154 were applied in either or both pre- and post-emergence mode to either or both monocot and dicot model plants, following the methods described above. The compounds were applied as a gradient of concentrations as listed above, from which the ED50 was calculated.

A further assay relates to Amaranthus palmeri. Kind of assay: LTP post-emergence greenhouse test. The following applies: Dosage 2000 g/ha.
A further assay has as its system Solanum nigrum. Kind of assay: LTP post-emergence greenhouse test. The following applies: Dosage 2000 g/ha.
For the next assay, the system named is Poa annua. Kind of assay: LTP post-emergence greenhouse test. The note with it: Dosage 2000 g/ha.
Another assay relates to Sinapis alba. Kind of assay: LTP post-emergence greenhouse test. The following applies: Dosage 2000 g/ha.
In another assay the test system is Eragrostis teff. Kind of assay: HTPS pre-emergence application on monocot model plant. How it is done:
as §1

Another assay relates to Galium aparine. Kind of assay: LTP post-emergence greenhouse test. The note with it: Dosage 2000 g/ha.
For assay [2], the system named is Arabidopsis thaliana. Kind of assay: HTPS post-emergence application on miniature dicot model plant. How it is done: The plates were placed in a controlled greenhouse in a random order inside a bath which allows flooding irrigation with tap water supplemented with a fertilizer. Applied compounds were dissolved into a final solution of 50% acetone, 49.9% DDW, 0.1% tween-20. A 96 well plate was used as a stock plate for preparing application solutions for 8 repeats. Each row contained different concentrations per chemical. Maximal concentration for application was 1.5 Kg/Ha and dilution factor is 2.5. Chemical application was performed one day after thinning out in a chemical hood. […] applied on first two true leaves in each well using 12 channel pipettes. Data collection: RGB (red, green, blue) data for green area per well was documented using camera. Data is collected at a few time points during the experiment: one day after thinning and before chemical application, two-, six- or nine-days post application. During the last two documentations, visual phenotyping was performed. Data analysis: Given RGB results and visual phenotype scores, a student t-test conducted to compare between treatment and control performance for continuous data (RGB) and Fisher exact test to analyze the non-continuous data (phenotypic scores). Dose-Response curves are generated for each treatment to infer ED50 and max. inhibition parameters, using treatment's log concentration range as the […] variable and normalized green area. Plate imaging performed at 11 and 18 DAA. RGB data for green area per well was documented and used to extract % inhibition. Dose-Response curves were built for each treatment to infer EC50, EC75 and EC90 parameters, using treatment's log concentration range as the independent variable and normalized green area as the dependent variable. Treatments were compared to controls performance given RGB results and using student's t-test (p-val≤0.05). Compounds 104-154 were applied in either or both pre- and post-emergence mode to either or both monocot and dicot model plants, following the methods described above. The compounds were applied as a gradient of concentrations as listed above, from which the ED50 was calculated.

Setting [3] is: dose-response of normalized green area.

Structures are written as SMILES.

With `C[C@@H](O)[C@@H](N)CCCCC(=O)O` [Compound 104, (6S,7R)-6-amino-7-hydroxyoctanoic acid], the “Herbicidal activity (In-planta), LTP-Post emergence, Echinochloa colon” value with Echinochloa colon worked out at 95. Also, the “Herbicidal activity (In-planta), LTP-Post emergence, Digitaria sanguinalis” value with Digitaria sanguinalis is reported as 95. Besides, the “Herbicidal activity (In-planta), LTP-Post emergence, Abutilon theophrasti” value with Abutilon theophrasti is 80. Moreover, the “ED50 (g/ha)” value with Arabidopsis thaliana [1] (setting [3]) worked out at 6 g/ha; in the assay on Eragrostis teff (setting [3]), 35 g/ha; in the assay on Arabidopsis thaliana [2] (setting [3]) it was 0.2 g/ha. Also, the figures for the “Max Inhibition (%)” value in the assay with Arabidopsis thaliana [1] (green area (RGB)) and in the assay with Eragrostis teff (green area (RGB)) were 94% and 100%, respectively. In addition, in the assay with Amaranthus palmeri, the “Herbicidal activity (In-planta), LTP-Post emergence, Amaranthus palmeri” value was found to be 90. For the same compound, in the assay on Solanum nigrum, the “Herbicidal activity (In-planta), LTP-Post emergence, Solanum nigrum” value was 80-90. For the same compound, the “Herbicidal activity (In-planta), LTP-Post emergence, Poa annua” value in the assay on Poa annua was 90. Moreover, the “Herbicidal activity (In-planta), LTP-Post emergence, Sinapis alba” value in the assay on Sinapis alba is listed as 60. The “Herbicidal activity (In-planta), LTP-Post emergence, Galium aparine” value with Galium aparine was determined as 70. Also, the Emax in the assay with Arabidopsis thaliana [2] (Arabidopsis thaliana, post-emergence, green area (RGB), read-out: Max Inhibition (%)) is 100%.
